Assay results reported in ChEMBL document CHEMBL5154826, “Discovery of the Clinical Candidate MAK683: An EED-Directed, Allosteric, and Selective PRC2 Inhibitor for the Treatment of Advanced Malignancies” (J Med Chem, 2022).
Converted amounts (≈) assume the structure as drawn.

What was measured:
[1] = In vivo inhibition of PRC2 in PBMC collected from human Karpas-422 cells xenografted Athymic NTac:NIH-Whn nude rat assessed as reduction in H3K27me3 level at 10 mg/kg, po, qd for 42 days measured after 4 hrs of last dose by FACS method; format: functional; parameters: scale not given: the % may be the effect or the level left; settings: time 42 day
[2] = Lipophilicity, logD of the compound at pH 7.4 by LC with tandem MS analysis; format: physicochemical; settings: buffer
[3] = Oral biovailability in Beagle dog at 2 mg/kg, po; format: ADME, organism-based, Canis lupus familiaris; settings: in vivo
[4] = Toxicity in Athymic NTac:NIH-Whn nude rat xenografted with human Karpas-422 cells assessed as reduction in body weight at 60 mg/kg, po, qd measured upto 140 days; format: organism-based; settings: in vivo, 3360 h, time < 140 day
[5] = Plasma clearance in human assessed as hepatic extraction; format: ADME, cell-free
Cytochrome P450 2D6 = Cytochrome P450 2D6 (Homo sapiens, UniProt P10635); test: Inhibition of CYP2D6 human liver microsomes using bufuralol as substrate incubated for 15 mins by LC-MS/MS analysis; format: ADME, Microsome
[6] = Dose normalized Cmax in Sprague-Dawley rat at 2 mg/kg, po or 1 mg/kg, iv after 1 week by LC-MS/MS analysis; format: ADME, organism-based; settings: in vivo, 168 h, time 1 weeks
[7] = Drugmetabolism in human hepatocytes assessed as metabolite formation; format: ADME, cell-based, Hepatocyte
[8] = Plasma clearance in mouse; format: ADME, cell-free
[9] = Genotoxicity in Salmonella typhimurium TA98 in presence of S9 fraction by Ames test; format: toxicity, subcellular; settings: salmonella enterica subsp. enterica serovar typhimurium
[10] = High throughput solubility of the compound at pH 4 after 16 to 24 hrs by MS/MS analysis; format: physicochemical; settings: buffer, time 16-24 hrs
[11] = Terminal half life in Sprague-Dawley rat at 2 mg/kg, po or 1 mg/kg, iv after 1 week by LC-MS/MS analysis; format: ADME, organism-based; settings: in vivo, time 1 weeks, read-out: beta t1/2 (converted)
[12] = Antitumor activity against human Karpas-422 cells xenografted Athymic BALB/c nude mouse assessed as minimum effective dose administered twice a day for 30 days; format: functional; settings: KARPAS-422, 720 h, time 30 day, read-out: MED
[13] = Toxicity in Athymic BALB/c nude mouse xenografted with human Karpas-422 cells assessed as tolerability by measuring body weight at 10 to 300 mg/kg, po twice a day for 30 days; format: organism-based; settings: in vivo, 720 h, dose 10-300 mg/kg, time 30 day
[14] = Terminal half life in wild type Beagle dog at 2 mg/kg, po or 1 mg/kg, iv after 1 week by LC-MS/MS analysis; format: ADME, organism-based, Canis lupus familiaris; settings: in vivo, time 1 weeks, read-out: beta t1/2 (converted)
[15] = Metabolic stability in dog microsomes assessed as intrinsic clearance; format: ADME, Canis lupus familiaris, Microsome; settings: read-out: CLH
[16] = Antitumor activity against human Karpas-422 cells xenografted Athymic BALB/c nude mouse assessed as inhibition of tumor growth at 3 to 100 mg/kg, po bid, for 30 days treatment started at twenty fifth day after cancer cell implantation and followed by stop dosing measured upto 70 days; format: functional; parameters: scale not given: the % may be the effect or the level left; settings: dose 3-100 mg/kg, time 30 day
[17] = Plasma clearance in mouse assessed as hepatic extraction; format: ADME, cell-free; settings: read-out: ERH
[18] = Ratio of drug level in mouse blood to plasma; format: ADME, cell-free
[19] = Intrinsic clearance in human hepatocytes measured per 10^6 cells; format: ADME, cell-based, Hepatocyte; settings: read-out: CLH
[20] = Volume of distribution at steady state in Sprague-Dawley rat at 2 mg/kg, po or 1 mg/kg, iv after 1 week by LC-MS/MS analysis; format: ADME, organism-based; settings: in vivo, 168 h, time 1 weeks
[21] = Dose normalized AUC in ICR (CD-1) mouse at 2 mg/kg, po or 1 mg/kg, iv after 1 week by LC-MS/MS analysis; format: ADME, organism-based; settings: in vivo, 168 h, time 1 weeks
[22] = Ratio of drug level in rat blood to plasma; format: ADME, cell-free
NIH3T3 = test: Phototoxicity in mouse 3T3 cells by neutral red uptake assay; format: toxicity, cell-based
[23] = Oral biovailability in ICR (CD-1) mouse at 2 mg/kg, po; format: ADME, organism-based; settings: in vivo
[24] = Plasma protein binding in mouse at 1 uM measured after 6 hrs LC-MS/MS analysis; format: ADME, cell-free; settings: read-out: PPB (converted)
[25] = biological target: T1, Voltage-gated inwardly rectifying potassium channel KCNH2 (Homo sapiens, UniProt Q12809); test: Inhibition of hERG potassium channel in HEK293 cells by Q-patch clamp assay; format: toxicity, cell-based
Cytochrome P450 3A4 [26] = biological target: T2, Cytochrome P450 3A4 (Homo sapiens, UniProt P08684); test: Inhibition of CYP3A4 in human liver microsomes using midazolam as substrate incubated for 10 mins by LC-MS/MS analysis; format: ADME, Microsome
Cytochrome P450 3A4 [27] = biological target: T2, Cytochrome P450 3A4; test: Inhibition of CYP3A4 in human liver microsomes using midazolam as substrate incubated for 10 mins in presence of NADPH by LC-MS/MS analysis; format: ADME, Microsome
[28] = Metabolic stability in mouse microsomes assessed as intrinsic clearance; format: ADME, Microsome; settings: read-out: CLH
[29] = Antitumor activity against human Karpas-422 cells xenografted Athymic BALB/c nude mouse assessed as inhibition of tumor growth at 100 mg/kg, po for 26 days; format: functional; parameters: scale not given: the % may be the effect or the level left; settings: time 26 day
[30] = biological target: T1, Voltage-gated inwardly rectifying potassium channel KCNH2; test: Inhibition of hERG potassium channel in HEK293 cells by manual patch clamp assay; format: toxicity, cell-based
[31] = Oral bioavailability in Sprague-Dawley rat at 2 mg/kg; format: ADME, organism-based; settings: in vivo
[32] = High throughput solubility of the compound at pH 1 after 16 to 24 hrs by MS/MS analysis; format: physicochemical; settings: buffer, time 16-24 hrs
[33] = Plasma protein binding in human assessed as unbound fraction at 1 uM measured after 6 hrs LC-MS/MS analysis; format: ADME, cell-free
Cytochrome P450 2C9 = Cytochrome P450 2C9 (Homo sapiens, UniProt P11712); test: Inhibition of CYP2C9 human liver microsomes using diclofenac as substrate incubated for 15 mins by LC-MS/MS analysis; format: ADME, Microsome
[34] = Plasma protein binding in dog at 1 uM measured after 6 hrs LC-MS/MS analysis; format: ADME, cell-free, Canis lupus familiaris; settings: read-out: PPB (converted)
[35] = biological target: T3, Muscarinic acetylcholine receptor M2 (Homo sapiens, UniProt P08172); test: Agonist activity at muscarinic M2 receptor (unknown origin); format: functional
T3 sequence (P08172 whole entry): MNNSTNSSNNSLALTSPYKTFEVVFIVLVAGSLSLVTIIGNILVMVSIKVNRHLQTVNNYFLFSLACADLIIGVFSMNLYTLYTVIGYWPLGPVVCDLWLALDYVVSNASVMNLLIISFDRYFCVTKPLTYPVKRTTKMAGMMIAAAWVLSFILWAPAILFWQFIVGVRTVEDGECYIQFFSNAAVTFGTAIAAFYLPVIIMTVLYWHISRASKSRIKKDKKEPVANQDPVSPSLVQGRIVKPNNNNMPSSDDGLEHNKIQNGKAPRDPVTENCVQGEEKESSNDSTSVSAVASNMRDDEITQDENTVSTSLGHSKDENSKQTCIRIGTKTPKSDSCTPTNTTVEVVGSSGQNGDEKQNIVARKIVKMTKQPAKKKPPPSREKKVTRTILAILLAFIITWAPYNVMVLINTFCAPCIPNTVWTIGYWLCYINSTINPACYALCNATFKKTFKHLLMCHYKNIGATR

T1 sequence (Q12809 whole entry): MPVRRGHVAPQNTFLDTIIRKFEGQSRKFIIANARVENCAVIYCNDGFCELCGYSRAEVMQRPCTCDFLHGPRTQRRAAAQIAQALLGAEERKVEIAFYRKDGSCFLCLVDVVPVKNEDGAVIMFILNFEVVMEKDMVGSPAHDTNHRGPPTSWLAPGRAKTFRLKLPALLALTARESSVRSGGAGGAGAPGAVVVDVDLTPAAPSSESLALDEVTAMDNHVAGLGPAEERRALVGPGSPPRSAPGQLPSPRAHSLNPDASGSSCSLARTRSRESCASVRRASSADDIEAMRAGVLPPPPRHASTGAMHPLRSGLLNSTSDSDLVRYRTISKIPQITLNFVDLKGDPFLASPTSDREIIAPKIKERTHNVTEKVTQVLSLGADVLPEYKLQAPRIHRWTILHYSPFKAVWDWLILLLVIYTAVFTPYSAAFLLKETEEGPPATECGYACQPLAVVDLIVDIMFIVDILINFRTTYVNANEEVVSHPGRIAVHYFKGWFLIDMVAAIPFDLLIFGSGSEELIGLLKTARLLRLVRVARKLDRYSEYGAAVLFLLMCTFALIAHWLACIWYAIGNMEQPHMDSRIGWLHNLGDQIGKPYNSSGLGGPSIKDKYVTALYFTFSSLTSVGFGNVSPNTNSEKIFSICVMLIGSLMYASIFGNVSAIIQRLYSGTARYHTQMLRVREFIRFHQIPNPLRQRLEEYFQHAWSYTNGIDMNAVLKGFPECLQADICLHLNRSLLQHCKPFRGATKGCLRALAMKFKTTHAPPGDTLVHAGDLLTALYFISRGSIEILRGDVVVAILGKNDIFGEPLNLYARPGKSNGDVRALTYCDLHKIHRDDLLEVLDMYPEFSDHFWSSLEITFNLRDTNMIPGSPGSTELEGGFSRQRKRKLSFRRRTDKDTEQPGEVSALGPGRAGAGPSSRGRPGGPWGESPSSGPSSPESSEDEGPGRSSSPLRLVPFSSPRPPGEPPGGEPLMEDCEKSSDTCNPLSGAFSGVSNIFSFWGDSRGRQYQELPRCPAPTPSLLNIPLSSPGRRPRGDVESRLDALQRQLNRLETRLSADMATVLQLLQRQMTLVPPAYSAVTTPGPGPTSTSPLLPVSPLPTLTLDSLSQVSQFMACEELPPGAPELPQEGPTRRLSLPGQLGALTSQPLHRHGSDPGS
T2 sequence (P08684 whole entry): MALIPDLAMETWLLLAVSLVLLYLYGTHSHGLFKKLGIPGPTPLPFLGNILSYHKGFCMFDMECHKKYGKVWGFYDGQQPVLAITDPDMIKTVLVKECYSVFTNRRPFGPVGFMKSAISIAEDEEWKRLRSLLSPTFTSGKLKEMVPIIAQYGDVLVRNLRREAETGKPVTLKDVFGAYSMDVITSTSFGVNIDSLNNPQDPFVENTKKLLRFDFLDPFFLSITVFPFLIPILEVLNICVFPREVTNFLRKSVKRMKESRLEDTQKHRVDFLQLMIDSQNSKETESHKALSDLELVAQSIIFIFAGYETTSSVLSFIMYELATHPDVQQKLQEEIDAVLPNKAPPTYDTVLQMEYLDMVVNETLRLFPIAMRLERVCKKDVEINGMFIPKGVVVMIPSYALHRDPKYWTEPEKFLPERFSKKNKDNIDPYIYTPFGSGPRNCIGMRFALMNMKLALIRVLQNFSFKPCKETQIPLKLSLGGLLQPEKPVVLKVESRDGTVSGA
Cytochrome P450 2D6, sequence (P10635 whole entry): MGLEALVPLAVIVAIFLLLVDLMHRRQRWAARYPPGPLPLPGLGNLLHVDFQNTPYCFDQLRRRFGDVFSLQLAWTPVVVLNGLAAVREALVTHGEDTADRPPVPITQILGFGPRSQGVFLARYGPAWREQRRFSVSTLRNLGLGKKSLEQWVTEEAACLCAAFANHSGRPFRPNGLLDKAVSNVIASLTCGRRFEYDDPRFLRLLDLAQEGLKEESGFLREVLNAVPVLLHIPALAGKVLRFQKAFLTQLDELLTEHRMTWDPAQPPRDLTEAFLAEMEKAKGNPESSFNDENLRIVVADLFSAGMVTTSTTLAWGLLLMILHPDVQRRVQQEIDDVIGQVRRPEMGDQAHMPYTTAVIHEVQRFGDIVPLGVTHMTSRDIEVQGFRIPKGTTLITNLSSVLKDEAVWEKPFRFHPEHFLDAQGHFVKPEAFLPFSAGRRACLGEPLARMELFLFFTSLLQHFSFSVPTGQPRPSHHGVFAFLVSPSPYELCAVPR
Cytochrome P450 2C9, sequence (P11712 whole entry): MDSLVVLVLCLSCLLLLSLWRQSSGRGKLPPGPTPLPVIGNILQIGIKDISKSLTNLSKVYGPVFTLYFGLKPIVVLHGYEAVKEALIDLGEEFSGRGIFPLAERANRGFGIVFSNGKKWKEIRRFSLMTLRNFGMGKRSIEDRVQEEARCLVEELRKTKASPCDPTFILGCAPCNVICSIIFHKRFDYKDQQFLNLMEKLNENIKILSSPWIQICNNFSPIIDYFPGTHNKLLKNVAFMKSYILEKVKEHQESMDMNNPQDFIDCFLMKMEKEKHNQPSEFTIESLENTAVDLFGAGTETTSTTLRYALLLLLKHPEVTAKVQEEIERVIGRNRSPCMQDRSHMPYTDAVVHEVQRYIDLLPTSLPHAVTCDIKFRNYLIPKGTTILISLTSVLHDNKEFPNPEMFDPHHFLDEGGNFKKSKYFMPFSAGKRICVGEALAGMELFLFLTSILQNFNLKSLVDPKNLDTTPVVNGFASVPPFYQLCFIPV

## Cc1ncccc1-c1cnc(NCc2c(F)ccc3c2CCO3)n2cnnc12
[1]
  Activity: 97%
[2]
  logD: 3.88
[3]
  bioavailability: 73%
[4]
  Activity: Toxic
[5]
  CLH: 1.6 mL/min/kg
Cytochrome P450 2D6
  IC50: > 18 µM
[6]
  Cmax/dose: 427 nM
[7]
  Drug metabolism: Metabolite_Notdetected
[8]
  clearance: 38 mL/min/kg
[9]
  Activity: Non-Toxic
[10]
  solubility: 266 µM (≈ 100 µg/mL)
[11]
  half-life: 3.2 h
[12]
  minimal effective dose: 3 mg/kg
[13]
  Activity: Non-Toxic
[14]
  half-life: 1.2 h
[15]
  microsomal CLint: 91 µL/min/mg
[16]
  Activity: 100%
[17]
  hepatic extraction ratio: 0.42
[18]
  blood plasma ratio: 1.03
[19]
  hepatocyte CLint: 4.4 µL/min/1e6 cells
[20]
  Vdss: 2 L/kg
[21]
  AUC/dose: 884 nM·h
[22]
  blood plasma ratio: 0.98
NIH3T3
  Activity: Non-Toxic
[23]
  bioavailability: 77%
[24]
  fraction unbound at 6 h, 1 µM: 0.15
[25]
  IC50: > 30 µM
Cytochrome P450 3A4 [26]
  IC50: > 18 µM
Cytochrome P450 3A4 [27]
  IC50: > 20 µM
[28]
  microsomal CLint: 22 µL/min/mg
[29]
  Activity: 100%
[30]
  IC50: > 30 µM
[31]
  bioavailability: 69%
[32]
  solubility: > 13000 µM
[33]
  fraction unbound at 6 h, 1 µM: 0.08
Cytochrome P450 2C9
  IC50: > 18 µM
[34]
  fraction unbound at 6 h, 1 µM: 0.09
[35]
  IC50: 8.9 µM
